Data: patent US20240189254A1, “Xylitol Topical Ocular Solution” (GSX Pharma LLC, priority 2022, published 2024)
Like-named read-outs stand apart in the source and are kept apart here.

Tests used:
S. pneumoniae [1] = settings: cited from earlier work
M. catarrhalis = settings: 5% xylitol; cited from earlier work
SARS-CoV-2 = settings: in vitro, within minutes of application, lasting for hours; cited from earlier work
Streptococcus salivarius = settings: cited from earlier work
[2] = tested on: beta-haemolytic streptococci; settings: 5% xylitol; cited from earlier work
S. mutans [3] = settings: in spite of the presence of glucose or sucrose; cited from earlier work
[4] = limited human studies of topical xylitol; format: in vivo; settings: topical 4% to 7% xylitol, 2-5 times per day
S. mutans [5] = settings: cited from earlier work
S. pneumoniae [6] = settings: glucose in the growth medium, cited from earlier work
[7] = tested on: Acanthamoeba species cysts; test: PMN testing of Acanthamoeba species, xylitol with PHMB; format: cell-based; settings: xylitol 6% to 20%
Description: In PMN testing of a number of Acanthamoeba species, Xylitol in concentrations ranging from 6% to 20% has appeared to potentiate the acanthamoeba cysticidal effects of PHMB. In order for a disinfectant like PHMB to be cysticidal, it must gain access to the trophozoite internalized within the cyst. The most obvious route is via the ostioles or the pores in the double cell wall of the cyst that connect the outer exocyst and inner endocyst, thus allowing the internalized amoeba to communicate with its outside environment. It is believed that the mucopolysaccharides of the ostioles are altered by xylitol that enhance the binding by PHMB to allow […] penetration of the disinfectant.

Streptococcus sanguis = settings: cited from earlier work
H. influenzae [8] = settings: 5% xylitol; cited from earlier work
[9] = in vivo; cited from earlier work
[10] = tested on: Streptococcus pneumoniae strains; settings: xylitol 0.5 to 5%; cited from earlier work
[11] = 8.4-10 g daily in five doses, 2-3 months follow-up, cited from earlier work
H. influenzae [12] = settings: cited from earlier work
[13] = tested on: Acanthamoeba trophozoites; settings: 48 h of exposure; cited from earlier work
Acanthamoeba cysts = settings: 48 h of exposure; cited from earlier work

## OC[C@@H](O)[C@H](O)[C@@H](O)CO [Xylitol]
S. pneumoniae [1]
  concentration sufficient to reduce adherence of S. pneumoniae to epithelial cells: 5%
M. catarrhalis
  growth of M. catarrhalis: minimally affected
SARS-CoV-2
  reduction of virion concentrations: multiple log MAR reduction
Streptococcus salivarius
  effect on growth of Streptococcus salivarius: modest by comparison, but still significant
[2]
  growth of beta-haemolytic streptococci: more modestly impaired
S. mutans [3]
  growth of S. mutans: markedly reduced
[4]
  corneal SPK: reduce
  symptoms and inflammation (imaging of retro-palpebral and ocular surface mucosa, Meibomian gland obstruction): improve
S. mutans [5]
  concentration capable of reducing adherence of S. mutans: 6%
S. pneumoniae [6]; 1% xylitol
  inhibition of pneumococcal growth: 39%
S. pneumoniae [6]; 5% xylitol solution
  inhibition of pneumococcal growth: 72%
[7]
  effect on acanthamoeba cysticidal effects of PHMB: potentiate
Streptococcus sanguis
  effect on growth of Streptococcus sanguis: modest by comparison, but still significant
H. influenzae [8]
  growth of H. influenza: minimally affected
[9]
  time until xylitol disappeared from the saliva: ≤ 15 min
[10]
  adherence on epithelial cells: did not diminish significantly
[11]; chewing gum
  reduction of acute otitis media: approximately 40%
[11]; oral xylitol syrup
  reduction of acute otitis media: approximately 30%
H. influenzae [12]
  concentration sufficient to reduce adherence of H. influenzae to epithelial cells: 5%

## Polyhexamethylene Biguanide [PHMB]
[13]
  minimum trophozoite amoebicidal concentration (MTAC): 1 g/mL
Acanthamoeba cysts
  minimum cysticidal concentration (MCC): 3 g/mL
